Experimental data as given in patent US20230133538A1, “TARGETED DEGRADERS OF ABERRANT TAU BASED ON THE PET TRACER PBB3” (DANA-FARBER CANCER INSTITUTE, INC., priority 2020, published 2023).

Assays:
[1] = target: T1, tau protein in human tau-A152T neurons (Homo sapiens, UniProt P10636, A469T); assay: Dose-effect on tau in tau-A152T neurons (Western blot, total tau TAU5 and P-Tau S396); format: cell-based; conditions: human tau-A152T neurons (6-week differentiated), 24 hours treatment, 1 μM or 10 μM
T1 construct: degrade tau protein in cultured human differentiated frontotemporal lobar dementia (FTD) neurons; endogenous in cells; host or cells: human differentiated FTD neurons, tau-A152T, 6-week differentiated
T1 sequence (P10636 1-441 isoform P10636-8 A152T): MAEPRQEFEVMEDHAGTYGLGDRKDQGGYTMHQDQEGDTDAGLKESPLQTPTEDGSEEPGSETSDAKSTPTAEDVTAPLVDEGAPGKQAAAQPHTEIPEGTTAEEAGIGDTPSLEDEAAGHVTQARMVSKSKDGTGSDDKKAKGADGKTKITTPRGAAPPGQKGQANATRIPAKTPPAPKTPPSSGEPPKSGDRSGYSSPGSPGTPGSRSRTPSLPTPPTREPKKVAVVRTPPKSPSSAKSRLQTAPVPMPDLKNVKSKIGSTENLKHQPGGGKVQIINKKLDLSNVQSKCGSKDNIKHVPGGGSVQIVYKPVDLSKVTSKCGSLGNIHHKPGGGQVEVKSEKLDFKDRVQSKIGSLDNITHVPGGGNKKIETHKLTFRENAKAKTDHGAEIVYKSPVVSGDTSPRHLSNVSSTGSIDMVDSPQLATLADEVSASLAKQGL
Protocol: (§1) Assays were performed according to protocols described in Silva et al., eLife, 8:e45457 (2019). Each of the bispecific compounds, along with the control parental scaffold, was evaluated for the ability to degrade tau protein in cultured human differentiated frontotemporal lobar dementia (FTD) neurons.
(§2) For each condition, 1 well of differentiated neuronal cells (6 well-plate) was washed and collected in PBS, pelleted and lysed in radioimmunoprecipitation assay (RIPA) buffer (Boston BioProducts) with 2% SDS (Sigma), protease inhibitors (Roche cOmplete™ Mini tablets), and phosphatase inhibitors (Sigma), followed by sonication in a water sonicator (Bransonic® Ultrasonic Baths, Thomas Scientific) for 5 minutes, and centrifugation at 20,000 g for 15 minutes. Supernatants were transferred to new tubes, total protein concentration was quantified with the Pierce™ BCA Protein Assay Kit (Thermo Scientific™), and SDS-PAGE gels were loaded with 10 μg total protein per well (pre-boiled samples). Western blots were performed with the Novex NuPAGE™ SDS-PAGE Gel System (Invitrogen™). All samples were resolved in 7% Tris-Acetate gels with Tris-Acetate running buffer (Invitrogen™). Blots were probed with antibodies against total tau (TAU5) and phosphorylated tau (Ser396), along with (3-actin as a loading control; followed by corresponding HRP-linked secondary antibodies (Cell Signaling Technology®), and SuperSignal™ West Pico Chemiluminescent Substrate (Thermo Scientific™) detection. Membranes were exposed to autoradiographic film (LabScientific) and films were scanned using an Epson® Perfection V800 Photo Scanner. Protein band intensities (pixel mean intensity) were quantified using Adobe Photoshop® CS5 Histogram function.
(§3) The vehicle alone (DMSO) had no effect on tau. However, varying degrading activity was observed among the specific compounds with overall similar relative levels of degrading activity between tau-A152T neurons and tau-P301L neurons. Bispecific compounds were added at the doses indicated (either 1 μM or 10 μM).

[2] = target: T2, tau protein in human tau-P301L neurons (Homo sapiens, UniProt P10636, P618L); assay: Dose-effect on tau in tau-P301L neurons (Western blot, total tau TAU5 and P-Tau S396); format: cell-based; conditions: human tau-P301L neurons (6-week differentiated), 24 hours treatment, 1 μM or 10 μM
T2 construct: degrade tau protein in cultured human differentiated frontotemporal lobar dementia (FTD) neurons; endogenous in cells; host or cells: human differentiated FTD neurons, tau-P301L, 6-week differentiated
T2 sequence (P10636 1-441 isoform P10636-8 P301L): as the sequence (P10636 1-441 isoform P10636-8 A152T) above, with T152A, P301L counted along it
Protocol: as §1, §2, §3

| degradation of hyperphosphorylated tau and/or total tau [1] | degradation of hyperphosphorylated tau and/or total tau [2] | Compound |
| --- | --- | --- |
| significantly degraded | significantly degraded | CNc1ccc(/C=C/C=C/c2nc3ccc(OCCCCCCNC(=O)COc4cccc5c4C(=O)N(C4CCC(=O)NC4=O)C5=O)cc3s2)cn1 (stereo not drawn) [compound 2, 2-(2-(2,6-dioxopiperidin-3-yl)-1,3-dioxoisoindolin-4-yloxy)-N-(6-(2-((1E,3E)-4-(6-(methylamino)pyridin-3-yl)buta-1,3-dienyl)benzo[d]thiazol-6-yloxy)hexyl)acetamide] |
| significantly degraded | significantly degraded | CNc1ccc(/C=C/C=C/c2nc3ccc(OCCOCCOCCNC(=O)COc4cccc5c4C(=O)N(C4CCC(=O)NC4=O)C5=O)cc3s2)cn1 (stereo not drawn) [compound 4, 2-(2-(2,6-dioxopiperidin-3-yl)-1,3-dioxoisoindolin-4-yloxy)-N-(2-(2-(2-(2-((1E,3E)-4-(6-(methylamino)pyridin-3-yl)buta-1,3-dienyl)benzo[d]thiazol-6-yloxy)ethoxy)ethoxy)ethyl)acetamide] |

| Compound | degradation of hyperphosphorylated tau and/or total tau [1] | degradation of hyperphosphorylated tau and/or total tau [2] |
| --- | --- | --- |
| Nc1cccc2c1CN(C1CCC(=O)NC1=O)C2=O (stereo not drawn) [Lenalidomide, reference compound] | no effect on tau levels | no effect on tau levels |
